According to patent publication US11008317B2, “Triazolopyridine inhibitors of myeloperoxidase and/or EPX” (priority 2016, dated 2021):
Where a name gives a salt, the structure may show the parent alone.

Tests used:
[1] = target: T1, myeloperoxidase (Homo sapiens, UniProt P05164); experiment: MPO Peroxidation Assay (Amplex Red Assay); assay type: biochemical; settings: potency range class
T1 sequence (P05164 49-745): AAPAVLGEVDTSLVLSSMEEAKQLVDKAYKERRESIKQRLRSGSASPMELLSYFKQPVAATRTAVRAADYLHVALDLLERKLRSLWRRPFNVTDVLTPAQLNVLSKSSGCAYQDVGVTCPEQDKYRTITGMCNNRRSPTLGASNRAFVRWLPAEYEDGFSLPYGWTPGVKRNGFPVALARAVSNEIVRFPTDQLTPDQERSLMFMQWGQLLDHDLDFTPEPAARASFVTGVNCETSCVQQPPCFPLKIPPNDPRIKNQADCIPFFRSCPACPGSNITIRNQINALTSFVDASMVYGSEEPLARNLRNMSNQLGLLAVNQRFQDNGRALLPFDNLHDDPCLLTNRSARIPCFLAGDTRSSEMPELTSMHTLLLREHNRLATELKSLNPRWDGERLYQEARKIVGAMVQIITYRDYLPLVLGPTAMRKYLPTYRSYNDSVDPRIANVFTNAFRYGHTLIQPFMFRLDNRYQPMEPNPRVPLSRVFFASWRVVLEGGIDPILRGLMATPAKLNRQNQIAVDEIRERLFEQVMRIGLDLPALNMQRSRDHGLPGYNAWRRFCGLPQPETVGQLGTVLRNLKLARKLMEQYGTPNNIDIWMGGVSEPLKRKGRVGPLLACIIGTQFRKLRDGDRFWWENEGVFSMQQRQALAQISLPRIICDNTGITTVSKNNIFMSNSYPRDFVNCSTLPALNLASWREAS

[2] = target: T1, myeloperoxidase; experiment: MPO Chlorination Assay (APF Assay); assay type: biochemical; settings: potency range class, read-out: APF Assay IC50 value
[3] = read-out: Amplex Red Assay IC50 value

Row | IC50 [1, 3] [µM] | IC50 [2] [nM] | SMILES | IC50 ([1]; Amplex Red Assay IC50 value (μM)) [µM]
1 | 0.101 to 0.999 | 101 to 999 | NC(=O)c1ccc(C2CCC(NCCC(c3ccccc3)c3cc(N)nc4[nH]nnc34)CC2)cc1 (stereo not drawn) [Example 118, 4-{4-[(3-{5-amino-3H-[1,2,3]triazolo [4,5-b]pyridin-7-yl}-3-phenylpropyl)amino]cyclohexyl} benzamide] | 
2 | 0.101 to 0.999 | 101 to 999 | CC(C)(CNCCC(c1ccccc1)c1cc(N)nc2[nH]nnc12)c1ccccc1 (stereo not drawn) [Example 104, 7-{3-[(2-methyl-2-phenylpropyl)amino]-1-phenylpropyl}-3H-[1,2,3]triazolo[4,5-b] pyridin-5-amine] | 
3 | 1 to 10 | 1 to 100 | Nc1cc(C(CCNC2CCC(Cc3ccccc3)(c3ccccc3)CC2)c2ccccc2)c2nn[nH]c2n1 (stereo not drawn) [Example 126, 7-{3-[(4-benzyl-4-phenylcyclohexyl)amino]-1-phenylpropyl}-3H-[1,2,3]triazolo[4,5-b]pyridin-5-amine] | 
4 | 0.101 to 0.999 | 101 to 999 | Nc1cc(C(CCN[C@H]2CC[C@@H](c3ccc(=O)[nH]c3)CC2)c2ccccc2)c2nn[nH]c2n1 (stereo partly drawn) [Example 133, 5-[(cis)-4-[(3-{5-amino-3H-[1,2,3]triazolo[4,5-b]pyridin-7-yl}-3-phenylpropyl)amino]cyclohexyl]-1,2-dihydropyridin-2-one] | 
5 | 1 to 10 | 101 to 999 | Nc1cc([C@H](CC(=O)NC2CCC(c3ccccc3)c3ccccc32)c2ccccc2)c2nn[nH]c2n1 (stereo partly drawn) [Example 203, (3R)-3-{5-amino-3H-[1,2,3]triazolo[4,5-b]pyridin-7-yl}-3-phenyl-N-(4-phenyl-1,2,3,4-tetrahydronaphthalen-1-yl)propanamide] | 
6 | 0.101 to 0.999 | 1 to 100 | Nc1cc([C@H](CC(=O)NC23CCC(c4ccccc4)(CC2)CC3)c2cccc(O)c2)c2nn[nH]c2n1 [Example 202, (3R)-3-{5-amino-3H-[1,2,3]triazolo[4,5-b]pyridin-7-yl}-3-(3-hydroxyphenyl)-N-{4-phenylbicyclo [2.2.2]octan-1-yl} propanamide] | 
7 | 0.001 to 0.1 |  | Nc1cc([C@H](CCNC23CCC(c4ccccc4)(CC2)C(O)C3)c2ccccc2)c2nn[nH]c2n1 (stereo partly drawn) [Example 181, 4-{[(3R)-3-{5-amino-3H-[1,2,3]triazolo [4,5-b]pyridin-7-yl}-3-phenylpropyl]amino}-1-phenylbicyclo[2.2.2] octan-2-ol] | 
8 | 0.101 to 0.999 | 101 to 999 | Nc1cc(C(CCC(N)Cc2ccccc2)c2ccccc2)c2nn[nH]c2n1 (stereo not drawn) [Example 235, 7-(4-amino-1,5-diphenylpentyl)-3H-[1,2,3]triazolo[4,5-b]pyridin-5-amine] | 
9 | 0.101 to 0.999 | 1000 to 10000 | Nc1cc([C@H](Cc2nc3ccccc3[nH]2)c2ccccc2)c2nn[nH]c2n1 [Example 261, (R)-7-(2-(1H-benzo [d]imidazol-2-yl)-1-phenylethyl)-3H-[1,2,3]triazolo[4,5-b] pyridin-5-amine] | 
10 | 1 to 10 | 101 to 999 | Nc1cc(C(CCN2CCC(c3ccccc3)CC2)c2ccccc2)c2nn[nH]c2n1 (stereo not drawn) [Example 186, 7-[1-phenyl-3-(4-phenylpiperidin-1-yl)propyl]-3H-[1,2,3] triazolo[4,5-b] pyridin-5-amine] | 
11 | 0.101 to 0.999 |  | Nc1cc(C(CCNC2CCCCC2)c2ccccc2)c2nn[nH]c2n1 (stereo not drawn) [Example 19, 7-[3-(cyclohexylamino)-1-phenylpropyl]-3H-[1,2,3]triazolo[4,5-b] pyridin-5-amine] | 
12 | 0.101 to 0.999 | 1 to 100 | CN(CC[C@H](c1ccccc1)c1cc(N)nc2[nH]nnc12)[C@H]1CC[C@H](c2ccccc2)CC1 (stereo in doubt) [Example 178, 7-(3-(methyl(4-phenylcyclohexyl)amino)-1-phenylpropyl)-3H-[1,2,3]triazolo[4,5-b]pyridin-5-amine] | 
13 | 0.001 to 0.1 | 101 to 999 | Nc1cc(C(CCNS(=O)(=O)c2ccccc2)c2ccccc2)c2nn[nH]c2n1 (stereo not drawn) [Example 15, N-(3-(5-amino-3H-[1,2,3]triazolo[4,5-b]pyridin-7-yl)-3-phenylpropyl)benzenesulfonamide, TFA] | 
14 | 1 to 10 | 101 to 999 | Nc1cc(C(CCCN[C@H]2CC[C@H](c3ccccc3)CC2)c2ccccc2)c2nn[nH]c2n1 (stereo partly drawn) [Example 208, 7-(1-phenyl-4-{[(trans)-4-phenylcyclohexyl]amino}butyl)-3H-[1,2,3]triazolo [4,5-b]pyridin-5-amine] | 
15 | 0.101 to 0.999 |  | Nc1cc(C(Cc2cccc(Cl)c2)c2ccccc2)c2nn[nH]c2n1 (stereo not drawn) [Example 32, 7-[2-(3-chlorophenyl)-1-phenylethyl]-3H-[1,2,3]triazolo [4,5-b]pyridin-5-amine] | 
16 |  | 1 to 100 | COC(=O)c1cccc(C(CCN[C@H]2CC[C@H](c3ccccc3)CC2)c2cc(N)nc3[nH]nnc23)c1 (stereo partly drawn) [Example 163, methyl 3-(1-{5-amino-3H-[1,2,3]triazolo [4,5-b]pyridin-7-yl}-3-{[(trans)-4-phenylcyclohexyl]amino}propyl) benzoate] | 
17 | 0.101 to 0.999 |  | Nc1cc(C(CCO)c2ccccc2)c2nn[nH]c2n1 (stereo not drawn) [Example 174, 3-{5-amino-3H-[1,2,3]triazolo [4,5-b]pyridin-7-yl}-3-phenylpropan-1-ol] | 

Row | IC50 [1, 3] [µM] | IC50 [2] [nM] | SMILES | IC50 ([1]; Amplex Red Assay IC50 value (μM)) [µM]
18 | 0.001 to 0.1 |  | CC(c1ccccc1)c1cc(N)nc2[nH]nnc12 (racemic) [Example 1, 7-(1-phenylethyl)-3H-[1,2,3]triazolo[4,5-b]pyridin-5-amine] | 
19 | 0.101 to 0.999 |  | CCC(c1ccccc1)c1cc(N)nc2[nH]nnc12 (stereo not drawn) [Example 5, 7-(1-phenylpropyl)-3H-[1,2,3]triazolo [4,5-b]pyridin-5-amine] | 
20 |  | 1 to 100 | NC(=O)CN(CC[C@H](c1ccccc1)c1cc(N)nc2[nH]nnc12)[C@H]1CC[C@H](c2ccccc2)CC1 [Example 189, 2-{[(3R)-3-{5-amino-3H-[1,2,3]triazolo [4,5-b]pyridin-7-yl}-3-phenylpropyl] [(trans)-4-phenylcyclohexyl]amino}acetamide] | 
21 | 0.001 to 0.1 |  | CCCC(c1ccccc1)c1cc(N)nc2[nH]nnc12 (stereo not drawn) [Example 3, 7-(1-phenylbutyl)-3H-[1,2,3]triazolo [4,5-b]pyridin-5-amine] | 
22 | 0.001 to 0.1 |  | Nc1cc(C(CCNC2CCC(c3ccc(Cl)c(Cl)c3)c3ccccc32)c2ccccc2)c2nn[nH]c2n1 (stereo not drawn) [Example 122, 7-(3-{[4-(3,4-dichlorophenyl)-1,2,3,4-tetrahydronaphthalen-1-yl]amino}-1-phenylpropyl)-3H-[1,2,3]triazolo[4,5-b]pyridin-5-amine] | 
23 |  | 1 to 100 | CC1CC(NCCC(c2ccccc2)c2cc(N)nc3[nH]nnc23)CCN1c1ccccc1 (stereo not drawn) [Example 131, N-(3-{5-amino-3H-[1,2,3]triazolo[4,5-b]pyridin-7-yl}-3-phenylpropyl)-2-methyl-1-phenylpiperidin-4-amine] | 
24 | 0.101 to 0.999 |  | Cc1cccc(C(Cc2ccccc2)c2cc(N)nc3[nH]nnc23)c1 (stereo not drawn) [Example 36, 7-[1-(3-methylphenyl)-2-phenylethyl]-3H-[1,2,3]triazolo [4,5-b]pyridin-5-amine] | 
25 | 0.101 to 0.999 |  | Nc1cc(C(CCC2CCCCC2)c2ccccc2)c2nn[nH]c2n1 (stereo not drawn) [Example 6, 7-(3-cyclohexyl-1-phenylpropyl)-3H-[1,2,3]triazolo[4,5-b]pyridin-5-amine] | 
26 | 0.001 to 0.1 |  | Nc1cc(C(Cc2ccc(CO)cc2)c2ccccc2)c2nn[nH]c2n1 (stereo not drawn) [Example 224, (4-(2-(5-amino-3H-[1,2,3]triazolo[4,5-b]pyridin-7-yl)-2-phenylethyl)phenyl)methanol] | 
27 | 0.101 to 0.999 |  | Nc1cc(C(Cc2ccccc2)c2cccc(Cl)c2)c2nn[nH]c2n1 (stereo not drawn) [Example 35, 7-[1-(3-chlorophenyl)-2-phenylethyl]-3H-[1,2,3]triazolo [4,5-b]pyridin-5-amine] | 
28 | 0.101 to 0.999 |  | Nc1cc(C(Cc2ccccc2Cl)c2ccccc2)c2nn[nH]c2n1 (stereo not drawn) [Example 31, 7-[2-(2-chlorophenyl)-1-phenylethyl]-3H-[1,2,3]triazolo [4,5-b]pyridin-5-amine] | 
29 |  |  | COc1cccc(C(Cc2ccccc2)c2cc(N)nc3[nH]nnc23)c1 (stereo not drawn) [Example 34, 7-(1-(3-methoxyphenyl)-2-phenylethyl)-3H-[1,2,3]triazolo[4,5-b]pyridin-5-amine] | 0.101 to 0.999
30 | 0.101 to 0.999 |  | CC(C)CC(c1ccccc1)c1cc(N)nc2[nH]nnc12 (stereo not drawn) [Example 4, 7-(3-methyl-1-phenylbutyl)-3H-[1,2,3]triazolo[4,5-b]pyridin-5-amine] | 
31 | 0.101 to 0.999 |  | Nc1cc(C(Cc2ccc(Cl)cc2)c2ccccc2)c2nn[nH]c2n1 (stereo not drawn) [Example 33, 7-[2-(4-chlorophenyl)-1-phenylethyl]-3H-[1,2,3]triazolo [4,5-b]pyridin-5-amine] | 
32 | 0.101 to 0.999 |  | CC(NCCC(c1ccccc1)c1cc(N)nc2[nH]nnc12)c1ccccc1 (single isomer, unassigned) [Example 13, 7-(1-phenyl-3-((1-phenylethyl)amino)propyl)-3H-[1,2,3]triazolo[4,5-b]pyridin-5-amine] | 
33 | 0.101 to 0.999 |  | Nc1cc(C(CCOC2CCc3ccccc32)c2ccccc2)c2nn[nH]c2n1 (single isomer, unassigned) [Example 232, 7-(3-((2,3-dihydro-1H-inden-1-yl)oxy)-1-phenylpropyl)-3H-[1,2,3]triazolo[4,5-b]pyridin-5-amine] | 
